Test results as given in US10125118B2, “Heteroaryl compounds and their use as therapeutic drugs” (Dong-A Socio Holdings Co., Ltd., priority 2015, dated 2018).

Key:
[1] = test system: CD8-MerTK in Ba/F3-CDM cells; test: In cell MER kinase assay, Ba/F3-CDM cell proliferation without IL-3 (Celltiter-Glo); assay type: cell-based, murine; conditions: 48 hours compound treatment, read-out: Cell growth inhibition (GI50)
In short: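 Ba/F3 cells, IL-3-dependent, transfected with CD8-MerTK and grown without IL-3 in DMEM/10% FBS. IL-3-supplemented Ba/F3 cells run in parallel as a cytotoxicity control.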

[2] = molecular target: human c-MER catalytic domain (Homo sapiens (Human), UniProt Q12866); test: LanthaScreen TR-FRET kinase assay, c-MER; conditions: read-out: Mer TK inhibition (IC50); Biochemical IC50, TR-FRET, 10 uM ATP
Chain of human c-MER catalytic domain (Q12866 587-858): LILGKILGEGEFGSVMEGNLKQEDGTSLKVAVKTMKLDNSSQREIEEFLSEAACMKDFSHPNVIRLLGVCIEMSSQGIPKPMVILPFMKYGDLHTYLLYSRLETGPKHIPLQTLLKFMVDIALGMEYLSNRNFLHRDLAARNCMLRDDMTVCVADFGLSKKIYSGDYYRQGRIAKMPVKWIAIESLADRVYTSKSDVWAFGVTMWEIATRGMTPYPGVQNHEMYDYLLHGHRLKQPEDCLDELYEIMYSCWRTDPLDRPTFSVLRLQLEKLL

## CN1CCN(C(C)(C)c2ccc(-c3ccc(CO[C@H]4CCC[C@@H]4NC(=O)c4cc(-c5ccc(F)nc5)cnc4N)cc3)cc2)CC1 [Example 225, 6-amino-6′-fluoro-N-((1S,2S)-2-((4′-(2-(4-methylpiperazin-1-yl)propan-2-yl)-[1,1′-biphenyl]-4-yl)methoxy)cyclopentyl)-[3,3′-bipyridine]-5-carboxamide]
[1]
  GI50: 100 to 500 nM
[2]
  IC50: < 10 nM

## C[C@@H](c1ccc(-c2ccc(CO[C@H]3CCC[C@@H]3NC(=O)c3cc(-c4ccc(F)nc4)cnc3N)cc2)cc1)N1CCN(CCO)CC1 [Example 226, 6-amino-6′-fluoro-N-((1S,2S)-2-((4′-((S)-1-(4-(2-hydroxyethyl)piperazin-1-yl)ethyl)-[1,1′-biphenyl]-4-yl)methoxy)cyclopentyl)-[3,3′-bipyridine]-5-carboxamide]
[1]
  GI50: < 100 nM
[2]
  IC50: < 10 nM

## C[C@H](c1ccc(-c2ccc(CO[C@H]3CCC[C@@H]3NC(=O)c3cc(-c4ccc(F)nc4)cnc3N)cc2)cc1)N1CCN(CCO)CC1 [Example 227, 6-amino-6′-fluoro-N-((1S,2S)-2-((4′-((R)-1-(4-(2-hydroxyethyl)-piperazin-1-yl)ethyl)-[1,1′-biphenyl]-4-yl)methoxy)cyclopentyl)-[3,3′-bipyridine]-5-carboxamide]
[1]
  GI50: < 100 nM
[2]
  IC50: < 10 nM

## Nc1ncc(-c2ccc(F)nc2)cc1C(=O)N[C@H]1CCC[C@@H]1OCc1ccc(-c2ccc(C3(N4CCN(CCO)CC4)CC3)cc2)cc1 [Example 228]
[1]
  GI50: 100 to 500 nM
[2]
  IC50: < 10 nM

## CC(c1ccc(-c2ccc(CO[C@H]3CCC[C@@H]3NC(=O)c3cc(-c4cncc(F)c4)cnc3N)cc2)cc1)N1CCN(C)CC1 (stereo partly drawn) [Example 230, 6-amino-5′-fluoro-N-((1S,2S)-2-((4′-(1-(4-methylpiperazin-1-yl)ethyl)-[1,1′-biphenyl]-4-yl)methoxy)cyclopentyl)-[3,3′-bipyridine]-5-carboxamide]
[1]
  GI50: < 100 nM
[2]
  IC50: < 10 nM

## CC(c1ccc(-c2ccc(CO[C@H]3CCC[C@@H]3NC(=O)c3cc(F)cnc3N)cc2)cc1)N1CCN(C)CC1 (stereo partly drawn) [Example 232, 2-amino-5-fluoro-N-((1S,2S)-2-((4′-(1-(4-methylpiperazin-1-yl)-ethyl)-[1,1′-biphenyl]-4-yl)methoxy)cyclopentyl)nicotinamide]
[1]
  GI50: 500 to 1000 nM
[2]
  IC50: < 10 nM

## CC(c1ccc(-c2ccc(CO[C@H]3CCC[C@@H]3NC(=O)c3cc(C#N)cnc3N)cc2)cc1)N1CCN(C)CC1 (stereo partly drawn) [Example 233, 2-amino-5-cyano-N-((1S,2S)-2-((4′-(1-(4-methylpiperazin-1-yl)-ethyl)-[1,1′-biphenyl]-4-yl)methoxy)cyclopentyl)nicotinamide]
[1]
  GI50: 100 to 500 nM
[2]
  IC50: < 10 nM

## CC(c1ccc(-c2ccc(CO[C@H]3CCC[C@@H]3NC(=O)c3cccnc3N)cc2)cc1)N1CCN(C)CC1 (stereo partly drawn) [Example 235, 2-amino-N-((1S,2S)-2-((4′-(1-(4-methylpiperazin-1-yl)ethyl)-[1,1′-biphenyl]-4-yl)methoxy)cyclopentyl)nicotinamide]
[1]
  GI50: 500 to 1000 nM
[2]
  IC50: < 10 nM

## CC(c1ccc(-c2ccc(CO[C@H]3CCC[C@@H]3NC(=O)c3cc(-c4cncc(F)c4)cnc3N)cc2)cc1)N1CCN(CCO)CC1 (stereo partly drawn) [Example 236, 6-amino-5′-fluoro-N-((1S,2S)-2-((4′-(1-(4-(2-hydroxyethyl)-piperazin-1-yl)ethyl)-[1,1′-biphenyl]-4-yl)methoxy)cyclopentyl)-[3,3′-bipyridine]-5-carboxamide]
[1]
  GI50: < 100 nM
[2]
  IC50: < 10 nM

## CC(c1ccc(-c2ccc(CO[C@H]3CCC[C@@H]3NC(=O)c3cc(-c4ccc(F)nc4)cnc3N)cc2)cc1)N1CCN(CCO)CC1 (stereo partly drawn) [Example 237, 6-amino-6′-fluoro-N-((1S,2S)-2-((4′-(1-(4-(2-hydroxyethyl)-piperazin-1-yl)ethyl)-[1,1′-biphenyl]-4-yl)methoxy)cyclopentyl)-[3,3′-bipyridine]-5-carboxamide]
[1]
  GI50: < 100 nM
[2]
  IC50: < 10 nM

## CC(c1ccc(-c2ccc(CO[C@H]3CCC[C@@H]3NC(=O)c3cc(-c4cccnc4F)cnc3N)cc2)cc1)N1CCN(CCO)CC1 (stereo partly drawn) [Example 238, 6-amino-2′-fluoro-N-((1S,2S)-2-((4′-(1-(4-(2-hydroxyethyl)-piperazin-1-yl)ethyl)-[1,1′-biphenyl]-4-yl)methoxy)cyclopentyl)-[3,3′-bipyridine]-5-carboxamide]
[1]
  GI50: < 100 nM
[2]
  IC50: < 10 nM

## CN1CCC(Cc2ccc(-c3ccc(CO[C@H]4CCC[C@@H]4NC(=O)c4cc(-c5cnn(C)c5)cnc4N)cc3)cc2)CC1 [Example 239, 2-amino-5-(1-methyl-1H-pyrazol-4-yl)-N-((1S,2S)-2-((4′-((1-methylpiperidin-4-yl)methyl)-[1,1′-biphenyl]-4-yl)methoxy)cyclopentyl)nicotinamide]
[1]
  GI50: < 100 nM
[2]
  IC50: < 10 nM

## Cn1cc(-c2cnc(N)c(C(=O)N[C@H]3CCC[C@@H]3OCc3ccc(-c4ccc(CC5CCN(CCO)CC5)cc4)cc3)c2)cn1 [Example 240, 2-amino-N-((1S,2S)-2-((4′-((1-(2-hydroxyethyl)piperidin-4-yl)-methyl)-[1,1′-biphenyl]-4-yl)methoxy)cyclopentyl)-5-(1-methyl-1H-pyrazol-4-yl)-nicotinamide]
[1]
  GI50: < 100 nM
[2]
  IC50: < 10 nM

## COC(=O)CN1CCC(Cc2ccc(-c3ccc(CO[C@H]4CCC[C@@H]4NC(=O)c4cc(-c5cnn(C)c5)cnc4N)cc3)cc2)CC1 [Example 241, Methyl 2-(4-((4′-((((1S,2S)-2-(2-amino-5-(1-methyl-1H-pyrazol-4-yl)nicotinamido)cyclopentyl)oxy)methyl)-[1,1′-biphenyl]-4-yl)methyl)piperidin-1-yl)-acetate]
[1]
  GI50: 500 to 1000 nM
[2]
  IC50: < 10 nM

## Cn1cc(-c2cnc(N)c(C(=O)N[C@H]3CCC[C@@H]3OCc3ccc(-c4ccc(CC5CCN(CC(N)=O)CC5)cc4)cc3)c2)cn1 [Example 242, 2-amino-N-((1S,2S)-2-((4′-((1-(2-amino-2-oxoethyl)piperidin-4-yl)methyl)-[1,1′-biphenyl]-4-yl)methoxy)cyclopentyl)-5-(1-methyl-1H-pyrazol-4-yl)-nicotinamide]
[1]
  GI50: < 100 nM
[2]
  IC50: < 10 nM

## CN(C)CCCOc1ccc(-c2ccc(CO[C@H]3CCC[C@@H]3NC(=O)c3cc(-c4cnn(C)c4)cnc3N)cc2)cc1 [Example 246, 2-amino-N-((1S,2S)-2-((4′-(3-(dimethylamino)propoxy)-[1,1′-biphenyl]-4-yl)methoxy)cyclopentyl)-5-(1-methyl-M-pyrazol-4-yl)nicotinamide]
[1]
  GI50: 100 to 500 nM
[2]
  IC50: < 10 nM

## CN1CCC(Oc2ccc(-c3ccc(CO[C@H]4CCC[C@@H]4NC(=O)c4cc(-c5cnn(C)c5)cnc4N)cc3)cc2)CC1 [Example 247, 2-amino-5-(1-methyl-1H-pyrazol-4-yl)-N-((1S,2S)-2-((4′-((1-methylpiperidin-4-yl)oxy)-[1,1′-biphenyl]-4-yl)methoxy)cyclopentyl)nicotinamide]
[1]
  GI50: 100 to 500 nM
[2]
  IC50: < 10 nM

## Cn1cc(-c2cnc(N)c(C(=O)N[C@H]3CCC[C@@H]3OCc3ccc(C#CCCO)cc3)c2)cn1 [Example 249, 2-amino-N-((1S,2S)-2-((4-(4-hydroxybut-1-yn-1-yl)benzyl)oxy)-cyclopentyl)-5-(1-methyl-1H-pyrazol-4-yl)nicotinamide]
[1]
  GI50: > 1000 nM
[2]
  IC50: < 10 nM

## Cn1cc(-c2cnc(N)c(C(=O)N[C@H]3CCC[C@@H]3OCc3ccc(C#CCCCO)cc3)c2)cn1 [Example 250, 2-amino-N-((1S,2S)-2-((4-(5-hydroxypent-1-yn-1-yl)-benzyl)oxy)-cyclopentyl)-5-(1-methyl-1H-pyrazol-4-yl)nicotinamide]
[1]
  GI50: 100 to 500 nM
[2]
  IC50: < 10 nM

## Cn1cc(-c2cnc(N)c(C(=O)N[C@H]3CCC[C@@H]3OCc3ccc(C#CCCCCO)cc3)c2)cn1 [Example 251, 2-amino-N-((1S,2S)-2-((4-(6-hydroxyhex-1-yn-1-yl)benzyl)oxy)-cyclopentyl)-5-(1-methyl-1H-pyrazol-4-yl)nicotinamide]
[1]
  GI50: > 1000 nM
[2]
  IC50: < 10 nM

## Cc1ccc(CO[C@H]2CCC[C@@H]2NC(=O)c2cc(-c3ccc(C(=O)NC4CCN(C)CC4)cc3)cnc2N)cc1C [Example 318, 2-amino-N-((1S,2S)-2-((3,4-dimethylbenzyl)oxy)cyclopentyl)-5-(4-((1-methylpiperidin-4-yl)carbamoyl)phenyl)nicotinamide]
[1]
  GI50: 500 to 1000 nM
[2]
  IC50: < 10 nM

## Cc1ccc(CO[C@H]2CCC[C@@H]2NC(=O)c2cc(-c3ccc(CN4CCC(N5CCCC5)CC4)c(F)c3)cnc2N)cc1C [Example 325, 2-amino-N-((1S,2S)-2-((3,4-dimethylbenzyl)oxy)cyclopentyl)-5-(3-fluoro-4-((4-(pyrrolidin-1-yl)piperidin-1-yl)methyl)phenyl)nicotinamide]
[1]
  GI50: > 1000 nM
[2]
  IC50: < 10 nM

## Cc1ccc(CO[C@H]2CCC[C@@H]2NC(=O)c2cc(-c3ccc(CN4CCC(O)CC4)cc3)cnc2N)cc1C [Example 328, 2-amino-N-((1S,2S)-2-((3,4-dimethylbenzyl)oxy)cyclopentyl)-5-(4-((4-hydroxypiperidin-1-yl)methyl)phenyl)nicotinamide]
[1]
  GI50: 500 to 1000 nM
[2]
  IC50: < 10 nM

## Cc1ccc(CO[C@H]2CCC[C@@H]2NC(=O)c2cc(-c3ccc(CN4CCC(N5CCOCC5)C4)cc3)cnc2N)cc1C (stereo partly drawn) [Example 337, 2-amino-N-((1S,2S)-2-((3,4-dimethylbenzyl)oxy)cyclopentyl)-5-(4-((3-morpholinopyrrolidin-1-yl)methyl)phenyl)nicotinamide]
[1]
  GI50: 500 to 1000 nM
[2]
  IC50: < 10 nM

## CCc1cc(CO[C@H]2CCC[C@@H]2NC(=O)c2cc(-c3ccc(C(C)(C)N4CCN(CCO)CC4)cc3)cnc2N)ccc1C [Example 360, 2-amino-N-((1S,2S)-2-((3-ethyl-4-methylbenzyl)oxy)cyclopentyl)-5-(4-(2-(4-(2-hydroxyethyl)piperazin-1-yl)propan-2-yl)phenyl)nicotinamide]
[1]
  GI50: > 1000 nM
[2]
  IC50: < 10 nM
